Experiments:
Conditions in all cases: human; call rule not given here
[1] = tested on: Hepatotoxicity; test: FDA HLAED, lactate dehydrogenase (LDH) increase
[2] = tested on: Hepatotoxicity; test: FDA HLAED, liver enzyme composite activity
[3] = tested on: Hepatotoxicity; test: FDA HLAED, alkaline phosphatase increase
[4] = tested on: Hepatotoxicity; test: FDA HLAED, serum glutamic oxaloacetic transaminase (SGOT) increase
[5] = tested on: Hepatotoxicity; test: FDA HLAED, gamma-glutamyl transferase (GGT) increase
[6] = tested on: Hepatotoxicity; test: FDA HLAED, serum glutamic pyruvic transaminase (SGPT) increase

Row | SMILES | LDH Increase - Activity Score [1] | LDH Increase - Index Value [1] | LDH Increase - Number of Reports [1] | Composite Activity - Active ([2]; Liver) | Composite Activity - Marginal ([2]; Liver) | Composite Activity - Score ([2]; Liver) | Alkaline Phosphatase Increase - Activity Score [3] | Alkaline Phosphatase Increase - Index Value [3] | Alkaline Phosphatase Increase - Number of Reports [3] | SGOT Increase - Activity Score [4] | SGOT Increase - Index Value [4] | SGOT Increase - Number of Reports [4] | GGT Increase - Activity Score [5] | GGT Increase - Index Value [5] | GGT Increase - Number of Reports [5] | SGPT Increase - Activity Score [6] | SGPT Increase - Index Value [6] | SGPT Increase - Number of Reports [6] | Composite Activity - Active [2] | Composite Activity - Marginal [2] | other results
1 | COc1cc([C@@H]2c3cc4c(cc3[C@@H](O[C@@H]3O[C@@H]5CO[C@@H](C)O[C@H]5[C@H](O)[C@H]3O)[C@H]3COC(=O)[C@H]23)OCO4)cc(OC)c1O [ETOPOSIDE] | Inactive | 0.4 | < 4 | 0 | 0 | Inactive | Inactive | 0.8 | < 4 | Inactive | 0.4 | < 4 | Inactive | 0 | < 4 | Inactive | 0 | < 4 | – | – | –
2 | CC(CN(C)C)CN1c2ccccc2CCc2ccccc21 (stereo not drawn) [TRIMIPRAMINE] | Inactive | 0 | < 4 | – | – | – | Inactive | 0 | < 4 | Inactive | 0 | < 4 | Inactive | 0 | < 4 | Inactive | 0 | < 4 | 0 | 0 | Composite Activity - Score [2]: Inactive
3 | C[C@H]1C[C@H]2[C@@H]3C[C@H](F)C4=CC(=O)C=C[C@]4(C)[C@@]3(F)[C@@H](O)C[C@]2(C)[C@@]1(O)C(=O)CCl [HALOBETASOL] | Inactive | 0 | < 4 | – | – | – | Inactive | 0 | < 4 | Inactive | 0 | < 4 | Inactive | 0 | < 4 | Inactive | 0 | < 4 | 0 | 0 | Composite Activity - Score [2]: Inactive
4 | CN1CCCC(n2nc(Cc3ccc(Cl)cc3)c3ccccc3c2=O)CC1 (stereo not drawn) [AZELASTINE] | Inactive | 0 | < 4 | – | – | – | Inactive | 0 | < 4 | Inactive | 0 | < 4 | Inactive | 0 | < 4 | Inactive | 0 | < 4 | 0 | 0 | Composite Activity - Score [2]: Inactive
5 | C#C[C@]1(O)CC[C@H]2[C@@H]3CCC4=CC(=O)CC[C@@H]4[C@H]3CC[C@@]21CC [LEVONORGESTREL] | Active | 28.3 | >= 4 | 5 | 0 | Active | Active | 34 | >= 4 | Active | 39.7 | >= 4 | Active | 34 | >= 4 | Active | 22.7 | >= 4 | – | – | –
6 | CC(C)c1c(C(=O)Nc2ccccc2)c(-c2ccccc2)c(-c2ccc(F)cc2)n1CC[C@@H](O)C[C@@H](O)CC(=O)O [ATORVASTATIN] | Inactive | 2.5 | >= 4 | 3 | 0 | Active | Inactive | 1.7 | >= 4 | Active | 6.5 | >= 4 | Active | 6.2 | >= 4 | Active | 7.3 | >= 4 | – | – | –

Reference: ChEMBL document CHEMBL1697781, “Assessment of the health effects of chemicals in humans: II. Construction of an adverse effects database for QSAR modeling” (Curr Drug Discov Technol, 2004)
